Patent US20230416232A1, “PYRIMIDINE COMPOUNDS, COMPOSITIONS, AND MEDICINAL APPLICATIONS THEREOF” (Blueprint Medicines Corporation, priority 2020, published 2023)

Key:
Format in all cases: cell-based
A431 cells = experiment: Cellular proliferation (Alamar Blue) assay, A431 cells; conditions: Homo sapiens, A-431, 72 h, A431 cells; 72 hr; Alamar Blue; read-out: A431 IC50
In short: (§1)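 Ba/F3 cells (15,000/well, RPMI + 10% FBS) or A431 cells (5000/well, DMEM + 10% FBS) were seeded for 16-18 h at 37 °C, then treated 72 h with compound at a final 10-0.0005 μM (3-fold dilutions). Alamar Blue was added for 3 h before read-out.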

[1] = target: HER2 (A775_G776insYVMA) expressing Ba/F3 stable cell line (Homo sapiens, UniProt P04626, DUP772-775, cells depend on it); experiment: Cellular proliferation (Alamar Blue) assay, HER2 (A775_G776insYVMA) Ba/F3; conditions: HER2 (A775_G776insYVMA) Ba/F3 cells; 72 hr; Alamar Blue; read-out: YVMA IC50
Sequence of HER2 (A775_G776insYVMA) expressing Ba/F3 stable cell line (P04626 with tags, fused parts or gaps DUP772-775): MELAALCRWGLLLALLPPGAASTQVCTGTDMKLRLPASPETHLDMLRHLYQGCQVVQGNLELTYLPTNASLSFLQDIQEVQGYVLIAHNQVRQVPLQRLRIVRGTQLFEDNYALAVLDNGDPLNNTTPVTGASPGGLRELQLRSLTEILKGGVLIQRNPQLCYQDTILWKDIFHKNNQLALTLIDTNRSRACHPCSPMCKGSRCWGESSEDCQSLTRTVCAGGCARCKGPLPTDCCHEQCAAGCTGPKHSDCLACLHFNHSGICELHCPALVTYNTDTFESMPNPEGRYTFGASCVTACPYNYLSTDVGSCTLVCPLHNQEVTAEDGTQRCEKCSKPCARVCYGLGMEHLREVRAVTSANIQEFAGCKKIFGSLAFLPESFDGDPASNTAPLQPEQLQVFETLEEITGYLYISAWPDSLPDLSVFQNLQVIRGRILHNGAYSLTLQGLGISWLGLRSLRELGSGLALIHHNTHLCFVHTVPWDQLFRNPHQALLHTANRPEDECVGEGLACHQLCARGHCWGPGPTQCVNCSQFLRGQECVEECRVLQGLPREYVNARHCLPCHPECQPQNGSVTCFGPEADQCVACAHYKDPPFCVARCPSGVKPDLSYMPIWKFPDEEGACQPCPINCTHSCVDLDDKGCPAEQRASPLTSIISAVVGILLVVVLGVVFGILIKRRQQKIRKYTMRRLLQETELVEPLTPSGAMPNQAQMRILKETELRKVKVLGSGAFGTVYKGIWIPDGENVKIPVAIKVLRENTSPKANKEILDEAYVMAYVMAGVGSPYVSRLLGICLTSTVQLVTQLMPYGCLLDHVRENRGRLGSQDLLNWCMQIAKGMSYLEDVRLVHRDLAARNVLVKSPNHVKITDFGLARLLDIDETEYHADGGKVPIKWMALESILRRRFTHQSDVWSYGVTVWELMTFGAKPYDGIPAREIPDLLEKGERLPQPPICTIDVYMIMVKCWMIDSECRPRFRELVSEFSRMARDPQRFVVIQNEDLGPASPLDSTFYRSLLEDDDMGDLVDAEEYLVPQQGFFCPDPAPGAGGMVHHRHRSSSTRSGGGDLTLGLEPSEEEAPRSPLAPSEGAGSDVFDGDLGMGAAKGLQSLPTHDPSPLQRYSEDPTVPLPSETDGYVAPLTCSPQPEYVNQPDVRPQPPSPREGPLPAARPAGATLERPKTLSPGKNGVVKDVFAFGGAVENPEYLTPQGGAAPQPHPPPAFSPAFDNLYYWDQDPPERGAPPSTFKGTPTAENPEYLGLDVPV
In short: as §1

[2] = target: EGFR (A767_dupASV) expressing Ba/F3 stable cell line (Homo sapiens, UniProt P00533, DUP767-769, cells depend on it); experiment: Cellular proliferation (Alamar Blue) assay, EGFR (A767_dupASV) Ba/F3; conditions: 72 hr, read-out: A767 IC50
Sequence of EGFR (A767_dupASV) expressing Ba/F3 stable cell line (P00533 with tags, fused parts or gaps DUP767-769): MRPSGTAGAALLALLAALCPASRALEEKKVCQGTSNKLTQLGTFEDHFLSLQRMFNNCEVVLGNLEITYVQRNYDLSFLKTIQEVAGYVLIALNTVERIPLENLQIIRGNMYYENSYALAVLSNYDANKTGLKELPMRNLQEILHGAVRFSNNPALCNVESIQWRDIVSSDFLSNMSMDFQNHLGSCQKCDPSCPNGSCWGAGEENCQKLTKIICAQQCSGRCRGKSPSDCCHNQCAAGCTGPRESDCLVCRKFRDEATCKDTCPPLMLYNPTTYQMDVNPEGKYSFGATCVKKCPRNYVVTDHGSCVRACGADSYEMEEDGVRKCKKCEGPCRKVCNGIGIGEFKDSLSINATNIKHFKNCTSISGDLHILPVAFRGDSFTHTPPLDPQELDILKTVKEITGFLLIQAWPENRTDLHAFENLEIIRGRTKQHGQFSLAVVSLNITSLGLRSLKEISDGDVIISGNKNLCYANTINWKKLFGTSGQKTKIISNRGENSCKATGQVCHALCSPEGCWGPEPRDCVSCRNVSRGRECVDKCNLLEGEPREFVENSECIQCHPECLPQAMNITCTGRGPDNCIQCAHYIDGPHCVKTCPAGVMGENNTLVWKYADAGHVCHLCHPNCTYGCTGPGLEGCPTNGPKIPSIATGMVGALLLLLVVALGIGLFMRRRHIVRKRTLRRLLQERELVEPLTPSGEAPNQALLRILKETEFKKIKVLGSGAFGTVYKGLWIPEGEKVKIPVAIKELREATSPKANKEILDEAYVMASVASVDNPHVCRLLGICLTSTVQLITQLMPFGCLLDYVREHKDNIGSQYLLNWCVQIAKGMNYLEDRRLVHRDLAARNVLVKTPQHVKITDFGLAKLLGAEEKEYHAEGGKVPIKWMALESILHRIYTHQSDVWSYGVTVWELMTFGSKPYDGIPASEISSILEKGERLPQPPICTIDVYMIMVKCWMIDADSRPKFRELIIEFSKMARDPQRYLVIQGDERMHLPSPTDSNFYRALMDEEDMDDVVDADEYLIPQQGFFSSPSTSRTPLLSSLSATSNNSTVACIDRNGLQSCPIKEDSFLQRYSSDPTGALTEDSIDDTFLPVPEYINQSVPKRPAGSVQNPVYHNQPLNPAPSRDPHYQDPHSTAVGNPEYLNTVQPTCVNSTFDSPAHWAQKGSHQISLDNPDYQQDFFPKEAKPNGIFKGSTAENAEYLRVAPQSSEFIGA
In short: as §1

[3] = target: EGFR (H773insNPH) expressing Ba/F3 stable cell line (Homo sapiens, UniProt P00533, DUP771-773, cells depend on it); experiment: Cellular proliferation (Alamar Blue) assay, EGFR (H773insNPH) Ba/F3; conditions: 72 hr, read-out: NPH IC50
Sequence of EGFR (H773insNPH) expressing Ba/F3 stable cell line (P00533 with tags, fused parts or gaps DUP771-773): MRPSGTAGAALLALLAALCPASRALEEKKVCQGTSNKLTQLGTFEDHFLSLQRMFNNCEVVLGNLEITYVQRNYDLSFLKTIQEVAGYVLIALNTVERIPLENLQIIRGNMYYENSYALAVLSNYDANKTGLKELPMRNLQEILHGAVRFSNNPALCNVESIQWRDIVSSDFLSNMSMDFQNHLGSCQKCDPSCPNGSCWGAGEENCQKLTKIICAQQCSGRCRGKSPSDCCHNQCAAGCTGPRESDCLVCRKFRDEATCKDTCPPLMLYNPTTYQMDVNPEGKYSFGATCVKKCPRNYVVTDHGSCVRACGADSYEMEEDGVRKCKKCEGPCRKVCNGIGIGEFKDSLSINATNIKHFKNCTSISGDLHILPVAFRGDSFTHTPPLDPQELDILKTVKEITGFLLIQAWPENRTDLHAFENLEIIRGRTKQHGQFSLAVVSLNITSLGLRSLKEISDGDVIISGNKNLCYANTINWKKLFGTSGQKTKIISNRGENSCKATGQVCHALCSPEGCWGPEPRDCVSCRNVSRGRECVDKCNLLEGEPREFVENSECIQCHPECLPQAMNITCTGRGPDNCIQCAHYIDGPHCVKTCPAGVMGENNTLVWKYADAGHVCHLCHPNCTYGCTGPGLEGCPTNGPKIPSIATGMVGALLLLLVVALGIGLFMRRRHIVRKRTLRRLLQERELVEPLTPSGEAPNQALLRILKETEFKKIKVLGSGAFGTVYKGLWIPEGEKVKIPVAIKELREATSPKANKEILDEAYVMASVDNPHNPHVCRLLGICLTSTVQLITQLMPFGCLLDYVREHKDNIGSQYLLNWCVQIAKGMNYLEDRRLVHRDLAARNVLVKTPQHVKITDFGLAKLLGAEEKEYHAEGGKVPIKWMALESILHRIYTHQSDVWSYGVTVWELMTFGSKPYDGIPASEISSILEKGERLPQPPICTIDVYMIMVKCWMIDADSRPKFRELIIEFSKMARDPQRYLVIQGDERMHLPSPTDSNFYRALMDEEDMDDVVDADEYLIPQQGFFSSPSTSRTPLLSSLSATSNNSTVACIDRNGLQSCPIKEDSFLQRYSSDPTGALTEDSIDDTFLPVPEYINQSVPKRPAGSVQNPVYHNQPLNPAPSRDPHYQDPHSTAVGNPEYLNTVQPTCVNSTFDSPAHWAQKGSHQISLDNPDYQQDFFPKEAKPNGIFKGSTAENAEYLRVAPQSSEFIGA
Procedure: Cell line details: • 1. EGFR(D770_N771insSVD) expressing Ba/F3 stable cell line • 2. EGFR (A767_dupASV) expressing Ba/F3 stable cell line • 3. A431 cells • 4. EGFR (H773insNPH) expressing Ba/F3 stable cell line • 5. HER2 (A775_G776insYVMA) expressing Ba/F3 stable cell line
• 1. Seed cells at 5000 for A431 and 15,000 cells for Ba/F3 in 100 μL/well in complete media (for A431: DMEM with 10% FBS and for Ba/F3 cells: RPMI with 10% FBS) in 96-well tissue culture plate. Leave outer wells without cells for background measurements. Incubate at 37 degree Celsius in 5% CO2 humidified incubator for 16-18 hours. • 2. Add 0.025 ml of 5X concentration compound dilution or DMSO control. Final compound concentration range is 10-0.0005 μM prepared in 3-fold serial dilutions. Incubate for 72 hr at 37 degree Celsius in 5% CO2 humidified incubator. • 3. Add 0.0125 ml Alamar Blue™ reagent to each well with multi-channel pipette and tap gently on each side of the plate to mix. Incubate for 3 hours at 37 degree Celsius in 5% CO2 humidified incubator. • 4. […] Data analysis was performed using XLfit 5.5.0.5.

[4] = target: EGFR(D770_N771insSVD) expressing Ba/F3 stable cell line (Homo sapiens, UniProt P00533, DUP768-770, cells depend on it); experiment: Cellular proliferation (Alamar Blue) assay, EGFR(D770_N771insSVD) Ba/F3; conditions: 72 hr, read-out: D770 IC50
Sequence of EGFR(D770_N771insSVD) expressing Ba/F3 stable cell line (P00533 with tags, fused parts or gaps DUP768-770): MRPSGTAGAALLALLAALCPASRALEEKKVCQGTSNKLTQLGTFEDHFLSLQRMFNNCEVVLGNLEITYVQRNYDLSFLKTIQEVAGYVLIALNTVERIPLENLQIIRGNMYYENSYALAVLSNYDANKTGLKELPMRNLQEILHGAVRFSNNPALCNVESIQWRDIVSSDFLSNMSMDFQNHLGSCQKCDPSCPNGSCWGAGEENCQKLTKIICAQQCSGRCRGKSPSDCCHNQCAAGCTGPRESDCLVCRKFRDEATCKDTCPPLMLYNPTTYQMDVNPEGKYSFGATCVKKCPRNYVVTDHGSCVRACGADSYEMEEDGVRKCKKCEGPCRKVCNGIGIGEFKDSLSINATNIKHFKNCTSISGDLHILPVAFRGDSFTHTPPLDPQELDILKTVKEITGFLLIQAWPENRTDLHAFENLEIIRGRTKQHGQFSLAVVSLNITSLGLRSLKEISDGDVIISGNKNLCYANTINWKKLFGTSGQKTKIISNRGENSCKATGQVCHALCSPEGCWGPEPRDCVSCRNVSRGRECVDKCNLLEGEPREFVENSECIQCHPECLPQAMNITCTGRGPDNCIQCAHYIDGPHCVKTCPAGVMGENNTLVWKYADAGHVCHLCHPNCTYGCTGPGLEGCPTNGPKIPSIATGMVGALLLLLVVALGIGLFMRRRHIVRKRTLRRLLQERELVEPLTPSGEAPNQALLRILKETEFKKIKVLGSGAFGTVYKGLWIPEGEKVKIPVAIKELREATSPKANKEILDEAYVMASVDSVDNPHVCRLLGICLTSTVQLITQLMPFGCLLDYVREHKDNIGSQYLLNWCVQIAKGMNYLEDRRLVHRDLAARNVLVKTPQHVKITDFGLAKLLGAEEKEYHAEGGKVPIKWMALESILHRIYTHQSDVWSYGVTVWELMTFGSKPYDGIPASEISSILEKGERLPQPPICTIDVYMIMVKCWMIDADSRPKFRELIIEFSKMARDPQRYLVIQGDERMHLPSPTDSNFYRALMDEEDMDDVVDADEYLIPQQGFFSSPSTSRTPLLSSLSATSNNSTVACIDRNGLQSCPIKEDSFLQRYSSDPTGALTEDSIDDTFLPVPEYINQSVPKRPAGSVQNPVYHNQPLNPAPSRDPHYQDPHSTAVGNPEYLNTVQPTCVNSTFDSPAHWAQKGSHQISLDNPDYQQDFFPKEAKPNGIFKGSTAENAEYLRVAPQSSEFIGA
In short: as §1

For `C=CC(=O)Nc1ccc(F)c(Nc2nc(Nc3cnn(C)c3)ncc2-c2ccc(OC(F)(F)F)c(F)c2)c1` [Compound 14, N-(4-fluoro-3-((5-(3-fluoro-4-(trifluoromethoxy)phenyl)-2-((1-methyl-1H-pyrazol-4-yl)amino)pyrimidin-4-yl)amino)phenyl)acrylamide], the IC50 (A431 cells) was 140 nM, the GI50 [1] was 107 nM and the GI50 [2] was 26 nM. It also gave a GI50 [3] of 59 nM.

Compound `C=CC(=O)Nc1cccc(Nc2nc(Nc3cnn(C)c3)ncc2-c2ccc(N(C)C)c(F)c2)c1` [Compound 30, N-(3-((5-(4-(dimethylamino)-3-fluorophenyl)-2-((1-methyl-1H-pyrazol-4-yl)amino)pyrimidin-4-yl)amino)phenyl)acrylamide] has an IC50 (A431 cells) of 299 nM, a GI50 [4] of 35 nM and a GI50 [1] of 91 nM. It also gave a GI50 [3] of 40 nM.

With `C=CC(=O)Nc1ccc(F)c(Nc2nc(Nc3cnn(C)c3)ncc2-c2cc(F)cc(Cl)c2)c1` [Compound 34, N-(3-((5-(3-chloro-5-fluorophenyl)-2-((1-methyl-1H-pyrazol-4-yl)amino)pyrimidin-4-yl)amino)-4-fluorophenyl)acrylamide] the IC50 (A431 cells) was 303 nM, the GI50 [1] was 84 nM and the GI50 [2] was 39 nM. It also gave a GI50 [3] of 50 nM.

In the case of `C=CC(=O)Nc1ccc(F)c(Nc2nc(Nc3cnn(C)c3)ncc2-c2cnc(Cl)c(C)c2)c1` [Compound 48, N-(3-((5-(6-chloro-5-methylpyridin-3-yl)-2-((1-methyl-1H-pyrazol-4-yl)amino)pyrimidin-4-yl)amino)-4-fluorophenyl)acrylamide], the IC50 (A431 cells) is reported as 68 nM, the GI50 [1] is reported as 36 nM and the GI50 [3] is reported as 31 nM.

For `C=CC(=O)Nc1ccc(F)c(Nc2nc(Nc3cnn(CCO)c3)ncc2-c2ccc(Cl)c(Cl)c2)c1` [Compound 51, N-(3-((5-(3,4-dichlorophenyl)-2-((1-(2-hydroxyethyl)-1H-pyrazol-4-yl)amino)pyrimidin-4-yl)amino)-4-fluorophenyl)acrylamide], the IC50 (A431 cells) was 110 nM, the GI50 [4] was 38 nM and the GI50 [2] was 56 nM. The GI50 [3] was 79 nM.

In the case of `C=CC(=O)Nc1ccc(F)c(Nc2nc(Nc3cnn(C)c3)ncc2-c2ccc(C3=CCN(C)CC3)c(F)c2)c1` [Compound 55, N-(4-fluoro-3-((5-(3-fluoro-4-(1-methyl-1,2,3,6-tetrahydropyridin-4-yl)phenyl)-2-((1-methyl-1H-pyrazol-4-yl)amino)pyrimidin-4-yl)amino)phenyl)acrylamide], the IC50 (A431 cells) is reported as 2230 nM, the GI50 [4] is reported as 2240 nM and the GI50 [2] is reported as 800 nM. The GI50 [3] was 3640 nM.

Work on `C=CC(=O)Nc1cccc(Nc2nc(Nc3cnn(C)c3)ncc2-c2ccc(Cl)c(F)c2)c1` [Compound 68, N-(3-((5-(4-chloro-3-fluorophenyl)-2-((1-methyl-1H-pyrazol-4-yl)amino)pyrimidin-4-yl)amino)phenyl)acrylamide] yielded an IC50 (A431 cells) of 60 nM, a GI50 [4] of 14 nM and a GI50 [2] of 23 nM. For the same compound, the GI50 [3] was 21 nM.

`C=CC(=O)Nc1cccc(Nc2nc(Nc3cnn(C)c3)ncc2-c2ccc(OC)c(F)c2)c1` [Compound 69, N-(3-((5-(3-fluoro-4-methoxyphenyl)-2-((1-methyl-1H-pyrazol-4-yl)amino)pyrimidin-4-yl)amino)phenyl)acrylamide] showed an IC50 (A431 cells) of 73 nM, a GI50 [1] of 27 nM and a GI50 [2] of 14 nM. It also gave a GI50 [3] of 21 nM.

`C=CC(=O)Nc1ccc(F)c(Nc2nc(Nc3cnn(C)c3)ncc2-c2ccc(N3CCCOCC3)c(F)c2)c1` [Compound 84, N-(4-fluoro-3-((5-(3-fluoro-4-(1,4-oxazepan-4-yl)phenyl)-2-((1-methyl-1H-pyrazol-4-yl)amino)pyrimidin-4-yl)amino)phenyl)acrylamide] was tested, and the IC50 (A431 cells) was 522 nM, the GI50 [4] was 122 nM and the GI50 [2] was 101 nM. It also gave a GI50 [3] of 92 nM.

Work on `C=CC(=O)Nc1ccc(F)c(Nc2nc(Nc3cnn(C)c3)ncc2-c2ccc(Br)c(F)c2)c1` [Compound 87, N-(3-{[5-(4-bromo-3-fluorophenyl)-2-[(1-methyl-1H-pyrazol-4-yl)amino]pyrimidin-4-yl]amino}-4-fluorophenyl) prop-2-enamide] yielded an IC50 (A431 cells) of 18 nM, a GI50 [1] of 83 nM and a GI50 [3] of 116 nM.

Work on `C=CC(=O)Nc1ccc(F)c(Nc2nc(Nc3cnn(C4COC4)c3)ncc2-c2ccc(Br)c(F)c2)c1` [Compound 94, N-(3-((5-(4-bromo-3-fluorophenyl)-2-((1-(oxetan-3-yl)-1H-pyrazol-4-yl)amino)pyrimidin-4-yl)amino)-4-fluorophenyl)acrylamide] yielded an IC50 (A431 cells) of 31 nM, a GI50 [1] of 144 nM and a GI50 [2] of 40 nM. It also gave a GI50 [3] of 35 nM.

With `Cn1cc(Nc2ncc(-c3ccc(Br)c(F)c3)c(Nc3cc(NC(=O)/C=C/CN4CCC4)ccc3F)n2)cn1` [Compound 166, (E)-4-(azetidin-1-yl)-N-(3-((5-(4-bromo-3-fluorophenyl)-2-((1-methyl-1H-pyrazol-4-yl)amino)pyrimidin-4-yl)amino)-4-fluorophenyl)but-2-enamide] the IC50 (A431 cells) was 613 nM, the GI50 [4] was 75 nM and the GI50 [1] was 555 nM. For the same compound, the GI50 [2] was 299 nM.

Work on `[2H]C([2H])([2H])n1cc(Nc2ncc(-c3cc(F)cc(F)c3)c(Nc3cc(NC(=O)/C=C/CN(C)C)ccc3F)n2)cn1` [Compound 167, (E)-N-(3-((5-(3,5-difluorophenyl)-2-((1-(methyl-d3)-1H-pyrazol-4-yl)amino)pyrimidin-4-yl)amino)-4-fluorophenyl)-4-(dimethylamino)but-2-enamide] yielded an IC50 (A431 cells) of 512 nM, a GI50 [4] of 84 nM and a GI50 [1] of 142 nM. For the same compound, the GI50 [2] was 234 nM.

For `C=CC(=O)Nc1ccc(F)c(Nc2nc(Nc3cnn(C)c3)ncc2-c2cc(F)cc(OC(F)F)c2)c1` [Compound 168, N-(3-((5-(3-(difluoromethoxy)-5-fluorophenyl)-2-((1-methyl-1H-pyrazol-4-yl)amino)pyrimidin-4-yl)amino)-4-fluorophenyl)acrylamide], the IC50 (A431 cells) was 67 nM, the GI50 [4] was 262 nM and the GI50 [1] was 574 nM. The GI50 [2] was 132 nM.

Compound `C=CC(=O)Nc1cc(F)c(F)c(Nc2nc(Nc3cnn(C)c3)ncc2-c2cc(F)cc(OC)c2)c1` [Compound 170, N-(3,4-difluoro-5-((5-(3-fluoro-5-methoxyphenyl)-2-((1-methyl-1H-pyrazol-4-yl)amino)pyrimidin-4-yl)amino)phenyl)acrylamide] has an IC50 (A431 cells) of 5250 nM, a GI50 [4] of over 10000 nM and a GI50 [1] of over 9040 nM. For the same compound, the GI50 [2] was over 10000 nM.

With `CN(C)C/C=C/C(=O)Nc1ccc(F)c(Nc2nc(Nc3cnn(C)c3)ncc2-c2cc(F)c(Br)c(F)c2)c1` [Compound 171, (E)-N-(3-((5-(4-bromo-3,5-difluorophenyl)-2-((1-methyl-1H-pyrazol-4-yl)amino)pyrimidin-4-yl)amino)-4-fluorophenyl)-4-(dimethylamino)but-2-enamide] the IC50 (A431 cells) was 57 nM, the GI50 [4] was 79 nM and the GI50 [1] was 113 nM. It also gave a GI50 [2] of 99 nM.

In the case of `C=CC(=O)Nc1ccc(F)c(Nc2nc(Nc3cnn(C)c3)ncc2-c2cc(F)cc(OC(F)(F)F)c2)c1` [Compound 172, N-(4-fluoro-3-((5-(3-fluoro-5-(trifluoromethoxy)phenyl)-2-((1-methyl-1H-pyrazol-4-yl)amino)pyrimidin-4-yl)amino)phenyl)acrylamide], the IC50 (A431 cells) is reported as 585 nM, the GI50 [4] is reported as 843 nM and the GI50 [1] is reported as 5980 nM. For the same compound, the GI50 [2] was 967 nM.

For `C=CC(=O)Nc1cc(Br)cc(Nc2nc(Nc3cnn(C)c3)ncc2-c2cc(F)cc(Cl)c2)c1` [Compound 173, N-(3-bromo-5-((5-(3-chloro-5-fluorophenyl)-2-((1-methyl-1H-pyrazol-4-yl)amino)pyrimidin-4-yl)amino)phenyl)acrylamide], the IC50 (A431 cells) was 776 nM, the GI50 [4] was 101 nM and the GI50 [1] was 1520 nM. The GI50 [2] was 311 nM.

`C=CC(=O)Nc1cc(Br)cc(Nc2nc(Nc3cnn(C)c3)ncc2-c2cc(F)cc(C(F)F)c2)c1` [Compound 174, N-(3-bromo-5-((5-(3-(difluoromethyl)-5-fluorophenyl)-2-((1-methyl-1H-pyrazol-4-yl)amino)pyrimidin-4-yl)amino)phenyl)acrylamide] gave an IC50 (A431 cells) of 358 nM, a GI50 [4] of 42 nM and a GI50 [1] of 759 nM. For the same compound, the GI50 [2] was 120 nM.

`Cn1cc(Nc2ncc(-c3ccc(Br)c(F)c3)c(Nc3cc(NC(=O)/C=C/CF)ccc3F)n2)cn1` [Compound 175, (E)-N-(3-((5-(4-bromo-3-fluorophenyl)-2-((1-methyl-1H-pyrazol-4-yl)amino)pyrimidin-4-yl)amino)-4-fluorophenyl)-4-fluorobut-2-enamide] gave an IC50 (A431 cells) of 347 nM, a GI50 [4] of 136 nM and a GI50 [1] of 1620 nM. It also gave a GI50 [2] of 224 nM.
